These results are taken from EP0042596B1, “Novel adenine nucleoside derivatives, their preparation and pharmaceutical compositions containing them” (REGENTS OF THE UNIVERSITY OF MINNESOTA, priority 1980, dated 1981).

SMILES strings stand for the structures. ≈ marks a conversion by molar mass, not a printed value.

The subject of data set [1] is herpes simplex virus type 2. In words: Genital herpes infection in female guinea pigs, suppression of lesion development (intravaginal agarose gel treatment). Type of data set: in vivo. The note with it: for animals with lesions: 5% vidarabine formulation in 0.8% agarose gel. How it is done: The antiviral efficacy of these compounds in the treatment of genital infections in female guinea pigs was determined, the infecting virus being herpes simplex virus […]. The in vivo efficacy was measured in terms of the effect of these compounds in suppressing lesion development induced by the infecting virus. The incidence of lesions for virus-infected animals treated with the test compound was measured and compared with the results obtained for virus-infected control animals treated with placebo, or with the results obtained for untreated virus-infected animals. In the control group of animals small lesions usually appeared 3 to 4 days following infection, the virus-induced lesions reaching a maximum severity around 7 days postinfection this peak being followed by scab formation and then healing. In each case the test animals were infected by intravaginal inoculation with the herpes simplex virus type 2 in 0.1 ml of cell culture medium. 0.1 ml of a 0.8% agarose gel containing the test compound at the stated concentration was then administered intravaginally, treatment commencing (unless otherwise stated) 3 hours postinfection and the test compound being administered 3 times daily for 7 days. […] For the results given in Table 2, drug administration was commenced 6 hours postinfection and the test compound administered three times daily for 5 days.

Data set [2] is described as follows: Solubility in water at 37°C. The note with it: at 37°C in water. Type of data set: physicochemical.
For data set [3] the following is noted: i.p.

By solubility is commonly meant how much of the substance goes into solution per volume. A high value points to much dissolved substance.

`COCC(=O)OC[C@H]1C[C@@H](n2cnc3c(N)ncnc32)[C@@H](O)[C@@H]1O` (racemic) [Compound B, 9-[2α,3β-dihydroxy-4α(methoxyacetoxymethyl)cyclopent-1 α-yl]adenine]: the “animals developed virus-induced lesions” value in data set [1] (administration commenced 6 hours postinfection, three times daily for 5 days, controls 60-90%) turned out to be 33%. The solubility in data set [2] was determined as 75 mg/mL (≈ 222 mM). The signs of toxicity entry in data set [3] (highest dose tested of 750 mg/kg) was “no signs of toxicity at all”.
`Nc1ncnc2c1ncn2[C@@H]1O[C@H](CO)[C@@H](O)[C@@H]1O` [vidarabine, 9-(β-D-arabinofuranosyl)-adenine]: the values for the animals with lesions in data set [1] (day 4 postinfection) and in data set [1] (day 7 postinfection) were 50% and 80%, respectively.
`COCC(=O)OC[C@H]1O[C@@H](n2cnc3c(N)ncnc32)[C@@H](O)[C@@H]1O` [Compound A, 9-s-D-Arabinofuranosyladenine-5'-methoxyacetate]: in data set [1] (concentration of 15% in 0.8% agarose gel, intravaginal, start 3 hours postinfection, 3 times daily for 7 days), the lesion formation result was “completely suppressed lesion formation”.
With `Nc1ncnc2c1ncn2[C@@H]1C[C@H](CO)[C@@H](O)[C@@H]1O` (racemic) [cyclaradine, 9 - [2α,3β-dihydroxy - 4α - (hydroxymethyl)cyclopent - 1 a - yl] - adenine], the “test animals had lesions” value in data set [1] (day 7 postinfection, concentration 3%) stood at 100%; in data set [1] (day 7 postinfection, concentration 10%), 100%. In data set [2], this compound registered a solubility of 1 mg/mL (≈ 3.77 mM). Besides, the lethality entry in data set [3] (dose of 900 mg/kg) is “not lethal”.
